Entries after “also recorded” stand apart in the source; their conditions may differ.
Experiments:
in vitro = settings: male, rat, microsomes
[1] = In vitro metabolic stability in human liver microsomes (HLM); settings: both, human, liver microsomes
anesthetized rat = assay: Anesthetized rat spirometry screening assay; assay type: in vivo; settings: for AUC MV Inc (2 min) (ratio vs. std*): 2 minute AUC of minute volume increase vs. comparator N-[2,6-di-(n-propylamino)-[1,3]pyrimidin-4-yl]-N,O-dimethyl-hydroxylamine
From the text: Effect of Compounds of the Invention on Respiratory Rate (RR), Tidal Volume (VT), and the Product Minute Volume Using an Anesthetized Rat Spirometry Screening Assay
Anesthetized rats provide a quick method of screening compounds for respiratory and cardiovascular activity. In contrast to the conscious rat model, this model offers an experimental set up with less variation in the baseline cardiovascular and respiratory measures. Compounds screened in this assay may be examined in a conscious rat model.
Rats were initially anesthetized with 3% isoflurane (inhaled) and femoral artery and vein cannulas were surgically inserted. Once cannulated, the rats were transitioned to urethane anesthesia (1.5 g/kg; i.v.) and a tracheal cut-down was performed. After placing the tracheal cannula, it was connected to a pneumotachometer to record respiratory airflow from which respiratory rate (RR), tidal volume (VT), and their product minute volume were derived. After the surgical preparation was complete, animals were allowed to stabilize for 30 minutes while respiratory rate, tidal volume, minute volume, blood pressure and heart rate were recorded continuously. Arterial blood gases (ABG) were obtained from arterial blood collected from the femoral artery. ABG measurements were taken before and 6 minutes after vehicle and each dose of compound administered. Compounds being screened were administered via bolus injections through the venous cannula followed by a saline flush (total time of administration is approximately 30 seconds), and the animal was monitored for at least 6 minutes for changes in cardiovascular efforts. Compounds were prepared in formulations identified to ensure optimal solubility. As such, vehicle controls were matched for the formulation of each compound tested. Dosing of the compound being screened was 0.1 and 0.3 mg/kg. The next dose was not administered until all cardiovascular and respiratory measures had returned to baseline levels. The positive control compounds used were N-[4,6-di-(n-propylamino)-[1,3,5]triazin-2-yl]-N,O-dimethyl-hydroxylamine or N-[2,6-di-(n-propylamino)-[1,3]pyrimidin-4-yl]-N,O-dimethyl-hydroxylamine (both administered at the end of each screening experiment (0.3 mg/kg dose) to validate the experiment and also to serve as a measure with which the compound being screened could be compared.
Data were analyzed by collecting cardiovascular and respiratory data in 30 second averages (BINs). Data were plotted 2 minutes before challenge and then 6 minutes after challenge.

[2] = system: rats chronically treated with morphine; assay: Apnea, ventilation and sleep structure in rats chronically treated with morphine (whole-body plethysmography); assay type: in vivo, Zucker rats; settings: oral gavage; for apnea frequency / number of apneas per hr expressed as a percent change from baseline (pre-drug): versus treatment with a vehicle
From the text: The objective of this study was to quantify the effects of selected compounds of this invention on apnea, ventilation and sleep structure in a rat model. The study consisted of two treatment conditions: (1) chronic morphine and test compound administered orally, and (2) chronic morphine and oral vehicle.
Adult male lean Zucker rats were anesthetized for electroencephalogram (EEG) and electromyogram (EMG) telemeter implantation. At least one week was permitted post-surgery before animals were used further. Morphine sulfate was added to the drinking water of singly housed rats beginning with 0.1 mg/ml morphine and increasing the concentration in increments, so that a final concentration of 0.6 mg/ml was achieved within 2 weeks. All respiratory measurements were made while animals were unrestrained in whole-body plethysmography chambers to permit animals to sleep and move freely. To avoid eliciting withdrawal, morphine water was continuously available during each plethysmography experiment. Minute volume and the number of central sleep apneas (CSA) were measured during all treatment conditions. A period of at least 1 to 1.5 h was permitted for animals to acclimate to the chamber before data collection began. The biopotential telemeters and their receivers were placed directly under the plethysmographic chambers and were used to continuously to capture EEG, EMG, and body temperature signals. Only data collected between the hours of 10 am to 4:30 pm were used in the final analysis to control for the effects of circadian rhythm on breathing.
Test compound in vehicle or an equivalent volume of vehicle was administered via an oral gavage tube at 12 pm. Data collected between 10 am and 12 pm represented baseline (pre-drug) conditions. Data collected between […] represented post-drug conditions. Analyses of the EEG and EMG waveforms for the purpose of staging sleep-wake behavior in rats as awake, NREM sleep, and REM sleep were based on previous sleep studies involving rodents. Central apneas were defined as a respiratory cycle period that was more than or equal to twice the average cycle period during baseline recordings. Percent time in each sleep-wake state, minute volume, and central sleep apnea counts were compared between treatment groups using a two-way ANOVA (factors: drug treatment and time). Breathing data during wakefulness was not analyzed because movement prevents measurement of accurate volumes when using whole-body plethysmography. When differences were detected with ANOVA, Student-Neuman-Keuls post hoc tests were run for all main effects and interactions. Differences were considered significant when p<0.05. Values are expressed as means±SE.

half-life at 5 μM (in vitro) | half-life at 5 μM [1] | SMILES | AUC MV Inc (2 min) (ratio vs. std*) (anesthetized rat) | other results
6.93 h | > 8.33 h | CCCNc1nc(NCCC)c2nc(NCCC)nc(NCCC)c2n1.Cl [Compound 6a, N^2,N^4,N^6,N^8-Tetra-n-propyl-pyrimido[5,4-d]pyrimidine-2,4,6,8-tetraamine hydrochloride] | 0.54 ratio vs. std | melting point: 208 to 211 °C
5.58 h | 4.15 h | CCCCNc1nc(NC)c2nc(NCCCC)nc(NC)c2n1.Cl [Compound 83a, N^2,N^6-Di-n-butyl-N^4,N^8-dimethyl-pyrimido[5,4-d]pyrimidine-2,4,6,8-tetraamine hydrochloride] | 1.05 ratio vs. std | 
 |  | CNc1nc(NCC2CC2)nc2c(NC)nc(NCC3CC3)nc12 [Compound 84, N^2,N^6-Bis-cyclopropylmethyl-N^4,N^8-dimethyl-pyrimido[5,4-d]pyrimidine-2,4,6,8-tetraamine] |  | melting point: 264 to 268 °C
0.4 h | 1.7 h | CNc1nc(N(C)NC)nc2c(NC)nc(N(C)NC)nc12 [Compound 91, 2,6-bis-(N,N′-dimethyl-hydrazino)-N^4,N^8-dimethyl-pyrimido[5,4-d]pyrimidine-4,8-diamine] | 0.08 ratio vs. std | 
0.233 h | 1.35 h | CNc1nc(N(C)NC)nc2c(NC)nc(N(C)C)nc12 [Compound 93a, 6-(N,N′-Dimethyl-hydrazino)-N^2,N^2,N^4,N^8-tetramethyl-pyrimido[5,4-d]pyrimidine-2,4,8-triamine] | 0.03 ratio vs. std | 
 |  | CCCNc1nc(NC)c2nc(C(=O)O)nc(NC)c2n1 [Compound 108, 4,8-Bis-methylamino-6-n-propylamino-pyrimido[5,4-d]pyrimidine-2-carboxylic acid] | 0.05 ratio vs. std | melting point: 218 to 220 °C
1.73 h | 2.02 h | CCCNc1nc(NC)c2nc(-c3ccc(F)cc3)nc(NC)c2n1 [Compound 112a, N^4,N^8-Dimethyl-N^2-n-Propyl-6-(4-fluorophenyl)-pyrimido[5,4-d]pyrimidine-2,4,8-triamine] | 0.14 ratio vs. std | 
4.15 h | 5.08 h | CCCNc1nc(-c2ccc(F)cc2)nc2c(NCCC)nc(NC)nc12 [Compound 114a, N^2-Methyl-N^4,N^8-di-n-propyl-6-(4-fluoro-phenyl)-pyrimido[5,4-d]pyrimidine-2,4,8-triamine] | 0.05 ratio vs. std | 
0.567 h | 1.2 h | CCCCc1nc(NCCC)c2nc(NC)nc(NCCC)c2n1 [Compound 118a, 6-n-Butyl-N^2-methyl-N^4,N^8-di-n-propyl-pyrimido[5,4-d]pyrimidine-2,4,8-triamine] | 0.05 ratio vs. std | 
1.37 h | 1.9 h | CCCNc1nc(OC)nc2c(NCCC)nc(NC)nc12 [Compound 120a, 6-Methoxy-N^2-methyl-N^4,N^8-di-n-propyl-pyrimido[5,4-d]pyrimidine-2,4,8-triamine] | 0.36 ratio vs. std | 
1.62 h | 3.78 h | CCCNc1nc(NCC)nc2c(NCCC)nc(NCC)nc12 [Compound 137a, N^2,N^6-Diethyl-N^4,N^8-di-n-propyl-pyrimido[5,4-d]pyrimidine-2,4,6,8-tetraamine] | 0.88 ratio vs. std | minute volume compared to a vehicle-treated group [2]: do not cause increases; number of apneas per hr versus vehicle [2]: reduced; also recorded: decreased; ventilation per unit time compared to vehicle [2]: did not cause an increase; also recorded: do not cause an increase; minute volume compared to a vehicle-treated group ([2]; higher dose): caused an increase; minute volume compared to a vehicle-treated group ([2]; low dose): did not cause an increase; apnea frequency [2]: reduced; also recorded: decreased; number of apneas per hr expressed as a percent change from baseline (pre-drug) [2]: reduced; also recorded: decreased
5.52 h | > 8.33 h | CCCNc1nc(NC2CC2)nc2c(NCCC)nc(NC3CC3)nc12 [Compound 138, N^2,N^6-Dicyclopropyl-N^4,N^8-di-n-propyl-pyrimido[5,4-d]pyrimidine-2,4,6,8-tetraamine] | 0.53 ratio vs. std | melting point: 210 to 212 °C
 |  | C=CCNc1nc(NC)nc2c(NCC=C)nc(NC)nc12.Cl [Compound 145a, N^4,N^8-Diallyl-N^2,N^6-dimethyl-pyrimido[5,4-d]pyrimidine-2,4,6,8-tetraamine hydrochloride] | 0.88 ratio vs. std | apnea frequency ([2]; hydrochloride): reduced; also recorded: decreased; number of apneas per hr expressed as a percent change from baseline (pre-drug) ([2]; hydrochloride): reduced; also recorded: decreased; minute volume compared to a vehicle-treated group ([2]; hydrochloride): did not cause an increase; also recorded: do not cause increases; number of apneas per hr versus vehicle ([2]; hydrochloride): reduced; also recorded: decreased; ventilation per unit time compared to vehicle ([2]; hydrochloride): did not cause an increase; also recorded: do not cause an increase

SMILES | half-life at 5 μM (in vitro) | half-life at 5 μM [1] | AUC MV Inc (2 min) (ratio vs. std*) (anesthetized rat) | other results
CCCNc1nc(NC)c2nc(NCCC)nc(NC)c2n1.Cl [Compound 27a, N^4,N^8-Dimethyl-N^2,N^6-di-n-propyl-pyrimido[5,4-d]pyrimidine-2,4,6,8-tetraamine hydrochloride] | 2.27 h | 2.12 h | 1.22 ratio vs. std | duration of increase in minute ventilation (anesthetized rat; anesthetized rat, i.v. bolus): approximately 2 minutes; effect on blood pressure (anesthetized rat; anesthetized rat, i.v. bolus): minimal effects; effect on minute ventilation above baseline values (anesthetized rat; anesthetized rat, i.v. bolus): increase; effect on pulse rate (anesthetized rat; anesthetized rat, i.v. bolus): minimal effects; effect on respiratory rate (anesthetized rat; anesthetized rat, i.v. bolus): stimulatory effects; dose dependence of effect on minute volume (anesthetized rat; based on a two-minute average): dose-dependent effect; effect compared to a reference compound as measured by area-under-curve (anesthetized rat; minute volume, two-minute average): greater effect; apnea frequency ([2]; hydrochloride): reduced; also recorded: decreased; number of apneas per hr expressed as a percent change from baseline (pre-drug) ([2]; hydrochloride): reduced; also recorded: decreased; minute volume compared to a vehicle-treated group ([2]; hydrochloride): did not cause an increase; also recorded: do not cause increases; number of apneas per hr versus vehicle ([2]; hydrochloride): reduced; also recorded: decreased; ventilation per unit time compared to vehicle ([2]; hydrochloride): did not cause an increase; also recorded: do not cause an increase
